Results from patent US6399581B1, “Compound possessing potent thrombin receptor antagonist activity” (Harbor Branch Oceanographic Institution, Inc., priority 1999, dated 2002).
Each block holds one molecule with its values, some of them ahead of it.

Assays:
[1] = target: T1, thrombin receptor (Homo sapiens, UniProt P25116); assay: Thrombin receptor antagonist assay using FLIPR: thrombin-induced intracellular calcium mobilization in HeLa cells; type: cell-based; conditions: fluo-3, thrombin 0.3 U/ml
T1 construct: HeLa cells, which constitutively express the thrombin receptor; endogenous in cells; host or cells: HeLa cells
T1 sequence (P25116 22-425): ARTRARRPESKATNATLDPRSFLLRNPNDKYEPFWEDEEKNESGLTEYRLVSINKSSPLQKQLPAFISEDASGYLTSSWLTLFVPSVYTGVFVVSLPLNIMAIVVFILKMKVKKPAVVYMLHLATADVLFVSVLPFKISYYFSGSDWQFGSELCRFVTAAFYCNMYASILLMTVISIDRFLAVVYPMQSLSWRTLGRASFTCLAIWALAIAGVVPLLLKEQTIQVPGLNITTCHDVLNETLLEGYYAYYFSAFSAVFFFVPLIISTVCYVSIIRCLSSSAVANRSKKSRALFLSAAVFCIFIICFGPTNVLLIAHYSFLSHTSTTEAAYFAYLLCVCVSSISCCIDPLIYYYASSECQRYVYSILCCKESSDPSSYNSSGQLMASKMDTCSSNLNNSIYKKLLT
Method: Tests were conducted of inhibition of thrombin-induced calcium mobilization in HeLa cells (see FIG. 2). […] The HPLC profiles of the extracts were very similar, and in both cases the biological activity resided in the same chromatographic fractions indicating common active principles. One of these was fully deconvoluted, and several active components were isolated. These were all glycosides of penasterol though differing in the number of sugar residues attached at the C-1 position.
Thrombin receptor antagonist assay using FLIPR (fluorescence)imaging plate reader: HeLa cells were suspended in complete media and the cell density measured then adjusted to give a final cell density of 2.0×10^5/ml. 100 μl of cell suspension was dispensed into 96-well microtitre plates using a Multipdrop 96/384 well plate dispenser. […] Fluorescence output was read every 1 second for the first 20 seconds then every 5 seconds for a further 30 seconds.
An assay was conducted based upon measurement of thrombin-inducedintracellular calcium mobilization in HeLa cells, which constitutively express the thrombin receptor. Intracellular calcium flux was measured using the fluorescent dye fluo-3' which in the absence of calcium ions fluoresces only weakly, but in the presence of calcium increases fluorescence by approximately 100-fold. Fluorescence was measured using a fluorescence imaging plate reader (FLIPR; see FIG. 2).

[2] = target: T2, protease-activated receptor 1 (PAR-1) (Homo sapiens, UniProt P25116); assay: SFLLRN-induced platelet aggregation, human washed platelets; type: cell-based
T2 construct: Blood was withdrawn from the antecubal vein of healthy human volunteers; endogenous in cells; host or cells: washed platelets from blood of healthy human volunteers
T2 sequence (P25116 22-425): T1 sequence (P25116 22-425)
Method: (§1) Platelet aggregation assay: Blood was withdrawn from the antecubal vein of healthy human volunteers who had taken no medication for 14 days. The blood (9 volumes) was anti-coagulated with 1 volume of 3.8% w/v tri-sodium citrate, to give a final citrate concentration of 12.9 mM. To each 20 ml volume of anti-coagulated blood 50 μl of a 10 μg/ml prostacyclin (PGI2) solution was added to prevent activation during the platelet isolation process. The prostacyclin-treated blood was then centrifuged (1280×g; 4 minutes) to yield platelet-rich plasma (PRP). […] The supernatant (platelet-poor plasma) was discarded and the platelets resuspended in a Hepes buffer (NaCl (8 g/l); NaHCO3 (1 g/l); KCl (0.2 g/l); KH2 PO4 (0.1 g/l); Hepes (1.2 g/l); D-Glucose (1 g/l) adjusted to a pH of 6.4. The resultant platelet suspension was again centrifuged (1280×g; 8 minutes) to pellet the platelets. The supernatant was discarded and the platelets resuspended in a Hepes buffer of the same composition but adjusted to a pH of 7.4. The platelet count was then adjusted to 300,000 platelets/μl, following quantification on a Sysmex K1000 Haematological analyser and CaCl2 (1 mM) and MgCl2 (0.5 mM) were added back. […]
(§2) Platelet aggregation, in a human washed platelet preparation, was quantified using an optical aggregometer. […]

[3] = tested on: human washed platelet preparation; assay: U-46619-induced platelet aggregation, human washed platelets; type: cell-based; conditions: U-46619 3 μM
Method: as §1, §2

[4] = target: T2, protease-activated receptor 1 (PAR-1); assay: Thrombin-induced platelet aggregation, human washed platelets; type: cell-based; conditions: thrombin 0.1 U/ml
Method: as §1, §2

[5] = tested on: liver hepatocyte (HepG2) cells; assay: Toxicity against liver hepatocyte (HepG2) cells; type: cell-based
[6] = tested on: rat mast cells; conditions: cited from earlier work
[7] = target: T3, C5 a-receptor (Homo sapiens, UniProt P21730); conditions: cited from earlier work
T3 sequence (P21730 1-350): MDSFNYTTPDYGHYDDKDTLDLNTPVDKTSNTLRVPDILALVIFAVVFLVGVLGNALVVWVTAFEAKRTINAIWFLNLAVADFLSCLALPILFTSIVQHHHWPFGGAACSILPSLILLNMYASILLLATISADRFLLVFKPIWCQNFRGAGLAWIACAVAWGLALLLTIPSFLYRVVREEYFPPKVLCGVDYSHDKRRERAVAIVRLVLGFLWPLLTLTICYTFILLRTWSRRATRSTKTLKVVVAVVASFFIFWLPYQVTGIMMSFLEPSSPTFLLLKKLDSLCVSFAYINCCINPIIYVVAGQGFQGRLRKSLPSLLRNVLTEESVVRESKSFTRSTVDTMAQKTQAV

- Inhibition of thrombin-induced calcium mobilization (thrombin receptor antagonist activity) [1]: most potent activity
- Fold more potent against SFLLRN- than against U-46619-induced platelet aggregation ([2]; SFLLRN 3 μM vs U-46619 3 μM): approximately 6 fold
- IC50, inhibition of SFLLRN-induced platelet aggregation ([2]; SFLLRN 3 μM, human washed platelets): 0.3 µg/mL
- IC50, inhibition of U-46619-induced platelet aggregation [3]: 1.7 µg/mL
- Inhibitory potency against thrombin-induced platelet aggregation relative to SFLLRN-induced, fold lower [4]: approximately 20 fold
Molecule: CC(C)=CCC[C@@H](C)[C@H]1CC[C@@]2(C(=O)O)C3=C(CC[C@]12C)[C@@]1(C)CC[C@H](O[C@@H]2OC[C@H](O)[C@H](O)[C@H]2O[C@@H]2O[C@H](CO)[C@H](O)[C@H](O)[C@H]2O)C(C)(C)[C@@H]1CC3 [Eryloside F, eryloside F]
- Toxicity against HepG2 cells [5]: low toxicity

Molecule: CC(=O)O[C@H]1CC[C@]2(C)C3=C(CC[C@H]2C1(C)C)[C@]1(C(=O)O)CC[C@H]([C@H](C)CCC=C(C)C)[C@@]1(C)CC3 [acetylpenasterol]
- Inhibition of IgE-dependent histamine release [6]: inhibit IgE-dependent histamine release

Molecule: CC(C)=CCC[C@@H](C)[C@H]1CC[C@@]2(C(=O)O)C3=C(CC[C@]12C)[C@@]1(C)CCC(=O)C(C)(C)[C@@H]1CC3 [penasterone]
- Inhibition of IgE-dependent histamine release [6]: inhibit IgE-dependent histamine release

Molecule: Eryloside E
- Antagonism of C5a-receptor binding [7]: antagonist of C5 a-receptorbinding

Molecule: Penasterol
- Inhibition of IgE-dependent histamine release [6]: inhibit IgE-dependent histamine release
